The values below come from US5550148A, “PAF synthesis modulators” (ZymoGenetics, Inc., priority 1995, dated 1996).

The term IC50 denotes the midpoint of a concentration-inhibition curve. Low readings indicate greater potency in that assay, high ones weaker potency in that assay.

In data set [1] the test system is remodeling PAF-acetyltransferase. In words: inhibition of remodeling PAF-acetyltransferase (remodeling pathway of PAF synthesis). The class given is biochemical. An excerpt: A second screening assay detects modulators of the formation of PAF from lyso-PAF and acetyl-CoA by an enzyme termed PAF acetyltransferase. This is the second step in the remodeling pathway of PAF synthesis, described by Wykle, J. Biol. Chem. 255:10256-60, 1980.
The remodeling pathway of PAF synthesis is the pathway involved in pathological processes, such as inflammation, and particularly in neutrophil-mediated processes. The de novo pathway of PAF synthesis is required for normal physiological functions. Therefore, a desirable, anti-inflammatory, therapeutically effective PAF modulator will down-regulate the remodeling pathway, but will have little or no effect on the de novo pathway of PAF synthesis.
Briefly, to assay the remodeling pathway acetyl-transferase, […] of […] bovine serum albumin (fatty acid free; Sigma) in PBS (120 mM NaCl, 2.7 mM KCl, 10 mM phosphate buffer, pH 7.4, supplemented with 10 μM CaCl2) was added to each well of a 96-well, flat-bottom microtiter plate. The plate was incubated for 15 min at ambient temperature, then the wells were aspirated and 50 μl of PBS was added to each well. Duplicate or triplicate test samples in DMSO (≤5% (v/v)) were added to each well.
HL-60 cells (a stable, transformed hematopoietic cell line) were combined with PBS containing 0.05% TWEEN-20 and mixed vigorously at 500 rpm for 30 sec. This treatment permeabilized the HL-60 cells. An aliquot (50 μl) of HL-60 lysate so formed was added to each well of the plate, and the plate was incubated for 5 min at ambient temperature with gentle shaking.
PAF acetyl-transferase substrates were added to each well, such that 25 μl of the following solution was added per well: Lyso-PAF ([…]; Calbiochem, La Jolla, Calif.), acetyl-CoA ([…]; Calbiochem), and ^3 H-acetyl-CoA (25 μCi/ml; Amersham). The plate was gently mixed for 45 sec and then incubated at 37° C. for 20 min.
Newly synthesized PAF was extracted by adding 1.25 mg of AMBERCHROM CG-71 resin (Supelco, Bellefonte, Pa.) in 25 μl of distilled water to each well. The plate was gently shaken for 1 min, following which the resin was collected on a 102 mm×258 mm glass-fiber filter using a MICRO-CELL HARVESTER (Skatron, Waltham, Mass.). The filter was washed with 500 ml water to remove unincorporated ^3 H-acetyl-CoA. Following the wash, the filter was dried in a microwave oven for 5-10 min.
After the filter was dried, it was soaked in 10 ml of Beta Plate scintillation fluid (LKB, Loughborough, England), and bound counts were determined in a TOP COUNT scintillation counter (Pharmacia). Percentage inhibition was determined by dividing the average of 2 or 3 replicate wells by the average of 3 control wells (5% DMSO alone), and multiplying by 100.

Data set [2] deals with de novo PAF-acetyltransferase. In words: inhibition of de novo PAF-acetyltransferase (de novo pathway of PAF synthesis). The data set is classed as biochemical.
The target of data set [3] is histamine H1 binding sites (Homo sapiens, UniProt P35367). The experiment in a line: displacement of [^3 H]pyrilamine from histamine H1 binding sites. Particulars: 0.01, 0.1, 1 and 10 μM tested, 0.5% DMSO. The procedure: (§1) Compound 1494 was assayed for a variety of inhibitory activities. […] Displacement of [^3 H]pyrilamine from histamine H1 binding sites (IC50 of about 3 μM) was noted, but may be unrelated to functional receptor agonism or antagonism. Displacement of [3H]dexamethasone from glucocorticoid binding sites (IC50 of about 3 μM) was also observed. Inhibition of the following activities was also detected: […]

Another data set has as its target PAF binding sites (Homo sapiens, UniProt P25105). In words: displacement of [^3 H]PAF from PAF binding sites. The settings on record: 0.01, 0.1, 1 and 10 μM tested, 0.5% DMSO. As to the method:
as §1

A short description of the next data set: solubility in 0.5% DMSO. Particulars: at 0.01, 0.1, 1 and 10 μM. The class given is physicochemical.
A further data set concerns the target T1, 5-lipoxygenase (Homo sapiens, UniProt P09917).
T1 sequence (P09917 1-674): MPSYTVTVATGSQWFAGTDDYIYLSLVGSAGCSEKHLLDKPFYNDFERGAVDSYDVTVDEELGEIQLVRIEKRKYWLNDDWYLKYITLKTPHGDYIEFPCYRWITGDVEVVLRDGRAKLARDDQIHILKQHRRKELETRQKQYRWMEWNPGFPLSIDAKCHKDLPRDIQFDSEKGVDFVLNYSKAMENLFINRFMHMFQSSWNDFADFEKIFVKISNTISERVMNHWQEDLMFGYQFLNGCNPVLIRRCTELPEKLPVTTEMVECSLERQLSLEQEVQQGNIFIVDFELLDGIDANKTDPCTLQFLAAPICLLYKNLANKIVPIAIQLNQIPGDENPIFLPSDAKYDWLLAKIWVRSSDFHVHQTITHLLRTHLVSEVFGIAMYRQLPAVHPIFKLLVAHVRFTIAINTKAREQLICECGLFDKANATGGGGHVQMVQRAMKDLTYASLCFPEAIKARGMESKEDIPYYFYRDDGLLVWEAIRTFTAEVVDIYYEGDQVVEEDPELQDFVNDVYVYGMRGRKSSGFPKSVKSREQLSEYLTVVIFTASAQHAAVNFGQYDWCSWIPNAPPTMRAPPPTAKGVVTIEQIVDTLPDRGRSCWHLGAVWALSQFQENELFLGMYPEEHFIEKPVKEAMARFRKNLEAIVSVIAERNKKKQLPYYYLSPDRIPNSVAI
The experiment in a line: inhibition of 5-lipoxygenase. The class given is biochemical. Particulars: 0.5% DMSO. The procedure: as §1

The test system of another data set is T cell. The experiment in a line: T cell proliferation in the presence of ConA. The data set is classed as cell-based.
Another data set deals with Phospholipase A2. In words: inhibition of Phospholipase A2. The data set is classed as biochemical. Particulars: 0.5% DMSO. As to the method:
as §1

The target of another data set is P56^lck tyrosine kinase (Homo sapiens, UniProt P06239). The experiment in a line: inhibition of P56^lck tyrosine kinase. The data set is classed as biochemical. The settings on record: 0.5% DMSO. The procedure: as §1
A further data set deals with P59^fyn tyrosine kinase (Homo sapiens, UniProt P06241). In words: inhibition of P59^fyn tyrosine kinase. The data set is classed as biochemical. The settings on record: 0.5% DMSO. The procedure: as §1
Another data set addresses Cyclooxygenase. The experiment in a line: inhibition of Cyclooxygenase. Particulars: 0.5% DMSO. The data set is classed as biochemical. The procedure: as §1
The target in another data set is EGF tyrosine kinase (Homo sapiens, UniProt P00533). In words: inhibition of EGF tyrosine kinase. The class given is biochemical. Particulars: 0.5% DMSO. The procedure: as §1
The target of data set [4] is T2, glucocorticoid binding sites (Homo sapiens, UniProt P04150).
T2 sequence (P04150 1-777): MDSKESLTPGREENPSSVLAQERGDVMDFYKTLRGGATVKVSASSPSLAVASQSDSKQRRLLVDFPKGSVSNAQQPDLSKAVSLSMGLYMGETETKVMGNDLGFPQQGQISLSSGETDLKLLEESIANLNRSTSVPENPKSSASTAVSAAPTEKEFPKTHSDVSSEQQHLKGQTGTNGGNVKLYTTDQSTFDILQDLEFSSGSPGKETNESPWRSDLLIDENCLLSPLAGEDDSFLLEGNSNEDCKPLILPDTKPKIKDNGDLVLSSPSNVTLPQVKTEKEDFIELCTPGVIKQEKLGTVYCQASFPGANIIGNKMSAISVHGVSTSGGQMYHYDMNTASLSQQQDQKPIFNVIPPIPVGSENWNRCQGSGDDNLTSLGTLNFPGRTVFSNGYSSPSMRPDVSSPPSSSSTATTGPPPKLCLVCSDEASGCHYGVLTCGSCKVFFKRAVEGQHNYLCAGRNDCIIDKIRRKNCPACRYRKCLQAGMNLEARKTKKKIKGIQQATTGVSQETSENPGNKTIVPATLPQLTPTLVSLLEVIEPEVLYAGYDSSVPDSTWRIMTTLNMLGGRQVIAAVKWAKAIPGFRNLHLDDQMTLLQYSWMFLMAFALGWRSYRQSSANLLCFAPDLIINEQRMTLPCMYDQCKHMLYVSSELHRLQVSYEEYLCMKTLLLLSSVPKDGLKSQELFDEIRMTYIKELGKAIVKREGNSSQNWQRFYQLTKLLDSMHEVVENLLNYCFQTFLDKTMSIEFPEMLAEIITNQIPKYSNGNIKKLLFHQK
In words: displacement of [3H]dexamethasone from glucocorticoid binding sites. Particulars: 0.01, 0.1, 1 and 10 μM tested, 0.5% DMSO. As to the method:
as §1
(In a radioligand displacement assay an active substance lowers the binding of a labelled ligand.)

A further data set has as its system B cell. The experiment in a line: B cell proliferation in the presence of LPS. The class given is cell-based.

Sequence of histamine H1 binding sites (P35367 whole entry): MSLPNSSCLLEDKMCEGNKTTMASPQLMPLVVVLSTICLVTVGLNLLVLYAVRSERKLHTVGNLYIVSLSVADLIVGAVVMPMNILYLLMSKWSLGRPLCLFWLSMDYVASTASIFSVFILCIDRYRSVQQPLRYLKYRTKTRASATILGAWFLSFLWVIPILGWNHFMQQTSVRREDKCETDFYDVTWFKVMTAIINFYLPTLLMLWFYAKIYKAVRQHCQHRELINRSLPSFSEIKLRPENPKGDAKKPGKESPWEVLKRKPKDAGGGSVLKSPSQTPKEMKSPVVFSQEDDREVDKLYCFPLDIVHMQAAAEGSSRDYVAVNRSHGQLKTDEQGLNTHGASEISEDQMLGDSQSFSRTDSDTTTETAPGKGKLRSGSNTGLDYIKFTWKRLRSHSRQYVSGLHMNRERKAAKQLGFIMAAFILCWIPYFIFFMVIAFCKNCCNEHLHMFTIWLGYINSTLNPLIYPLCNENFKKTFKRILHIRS
Sequence of EGF tyrosine kinase (P00533 25-1210): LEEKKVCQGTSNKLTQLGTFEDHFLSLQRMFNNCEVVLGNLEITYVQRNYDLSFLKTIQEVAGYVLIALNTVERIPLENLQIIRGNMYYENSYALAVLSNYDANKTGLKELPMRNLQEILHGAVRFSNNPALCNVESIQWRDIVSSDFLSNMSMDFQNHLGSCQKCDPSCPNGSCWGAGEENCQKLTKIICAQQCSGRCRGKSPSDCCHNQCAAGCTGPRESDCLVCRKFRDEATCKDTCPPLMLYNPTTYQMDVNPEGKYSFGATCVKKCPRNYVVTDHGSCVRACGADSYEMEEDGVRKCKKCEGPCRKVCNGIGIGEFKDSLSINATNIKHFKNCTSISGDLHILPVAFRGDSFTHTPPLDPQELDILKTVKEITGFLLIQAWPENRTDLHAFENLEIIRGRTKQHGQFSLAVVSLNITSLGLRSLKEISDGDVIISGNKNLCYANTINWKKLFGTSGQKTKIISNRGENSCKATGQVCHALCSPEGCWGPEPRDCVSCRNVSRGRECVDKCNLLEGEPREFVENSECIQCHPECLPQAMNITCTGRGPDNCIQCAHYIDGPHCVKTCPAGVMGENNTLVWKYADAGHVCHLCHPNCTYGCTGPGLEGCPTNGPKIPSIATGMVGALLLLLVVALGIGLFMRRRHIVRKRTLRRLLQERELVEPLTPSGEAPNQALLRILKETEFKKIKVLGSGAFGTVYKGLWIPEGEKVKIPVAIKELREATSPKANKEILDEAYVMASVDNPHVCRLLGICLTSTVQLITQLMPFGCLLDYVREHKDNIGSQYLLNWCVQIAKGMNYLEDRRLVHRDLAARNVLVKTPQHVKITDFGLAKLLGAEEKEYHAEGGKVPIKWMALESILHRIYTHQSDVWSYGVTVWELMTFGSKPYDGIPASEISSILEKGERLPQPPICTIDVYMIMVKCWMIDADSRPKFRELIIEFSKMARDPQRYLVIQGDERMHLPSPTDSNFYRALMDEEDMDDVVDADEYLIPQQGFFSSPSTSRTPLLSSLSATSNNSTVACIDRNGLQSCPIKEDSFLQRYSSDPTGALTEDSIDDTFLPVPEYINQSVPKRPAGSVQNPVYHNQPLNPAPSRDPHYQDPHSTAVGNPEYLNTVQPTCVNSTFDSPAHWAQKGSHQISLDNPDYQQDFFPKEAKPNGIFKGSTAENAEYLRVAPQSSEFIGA
Sequence of P59^fyn tyrosine kinase (P06241 whole entry): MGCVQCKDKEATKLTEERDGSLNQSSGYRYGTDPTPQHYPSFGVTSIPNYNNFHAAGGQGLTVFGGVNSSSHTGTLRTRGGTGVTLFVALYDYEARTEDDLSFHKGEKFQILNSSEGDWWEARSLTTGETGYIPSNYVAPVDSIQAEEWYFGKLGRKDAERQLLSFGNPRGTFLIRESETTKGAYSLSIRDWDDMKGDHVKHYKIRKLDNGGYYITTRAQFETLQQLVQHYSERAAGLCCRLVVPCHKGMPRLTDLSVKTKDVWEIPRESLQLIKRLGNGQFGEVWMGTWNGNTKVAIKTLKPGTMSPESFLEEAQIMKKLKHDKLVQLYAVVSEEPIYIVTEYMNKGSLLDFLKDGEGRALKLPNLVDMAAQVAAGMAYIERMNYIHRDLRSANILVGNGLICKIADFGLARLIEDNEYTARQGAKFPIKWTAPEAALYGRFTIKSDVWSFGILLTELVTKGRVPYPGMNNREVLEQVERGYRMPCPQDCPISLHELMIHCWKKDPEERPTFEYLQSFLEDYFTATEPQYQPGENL
Sequence of P56^lck tyrosine kinase (P06239 whole entry): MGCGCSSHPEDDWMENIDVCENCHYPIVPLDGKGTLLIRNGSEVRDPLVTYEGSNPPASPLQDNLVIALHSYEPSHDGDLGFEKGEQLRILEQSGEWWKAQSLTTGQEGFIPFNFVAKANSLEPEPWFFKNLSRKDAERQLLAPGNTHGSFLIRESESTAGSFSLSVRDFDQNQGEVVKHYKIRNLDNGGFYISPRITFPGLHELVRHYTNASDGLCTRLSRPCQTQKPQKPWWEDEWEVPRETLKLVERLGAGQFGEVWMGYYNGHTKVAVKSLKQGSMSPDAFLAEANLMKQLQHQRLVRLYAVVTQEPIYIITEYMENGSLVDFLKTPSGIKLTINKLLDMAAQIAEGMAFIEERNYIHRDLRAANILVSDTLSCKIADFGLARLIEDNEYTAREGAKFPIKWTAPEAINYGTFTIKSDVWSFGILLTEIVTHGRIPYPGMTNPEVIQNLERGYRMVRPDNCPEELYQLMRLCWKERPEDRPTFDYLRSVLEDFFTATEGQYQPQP
Sequence of PAF binding sites (P25105 whole entry): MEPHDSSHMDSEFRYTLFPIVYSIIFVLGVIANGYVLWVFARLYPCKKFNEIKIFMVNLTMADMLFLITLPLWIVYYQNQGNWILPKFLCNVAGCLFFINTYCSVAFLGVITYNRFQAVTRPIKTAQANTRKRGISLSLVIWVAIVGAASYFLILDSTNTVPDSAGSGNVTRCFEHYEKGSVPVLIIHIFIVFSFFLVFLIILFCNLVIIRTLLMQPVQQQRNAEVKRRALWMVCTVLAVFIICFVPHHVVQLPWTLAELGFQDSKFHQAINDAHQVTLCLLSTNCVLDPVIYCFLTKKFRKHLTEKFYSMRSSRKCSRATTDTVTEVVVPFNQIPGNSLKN

With `CCC(C)C=C(C)C1C(C)=CC2(C)CC(C)CC(C)C2C1C(=O)C1=CC(O)(Cc2ccc(O)cc2)NC1=O` (centres unmarked) [Compound 2158], the figures for the “inhibition of remodeling PAF-acetyltransferase” value in data set [1] (25 μg/well) and in data set [1] (0.9 to 0.1 μg/well) were 59% and 0%, respectively. The “inhibition of de novo PAF-acetyltransferase” value in data set [2] (0.1 to 25 μg/well) is “No significant inhibition”.
On to `CCC(C)C=C(C)C1C(C)=CC2(C)CC(C)CCC2C1C(=O)C1=CC(O)(Cc2ccc(O)cc2)NC1=O` (centres unmarked) [Compound 1494], for which the IC50 in data set [3] is roughly 3 µM; on PAF binding sites, roughly 3 µM; against 5-lipoxygenase it was roughly 10 µM; at Phospholipase A2 it was roughly 100 µM; against P56^lck tyrosine kinase, roughly 3 µM; against P59^fyn tyrosine kinase, roughly 3 µM. The IC50 is roughly 300 µM against Cyclooxygenase, roughly 3 µM against EGF tyrosine kinase and roughly 3 µM in data set [4]. Moreover, in “solubility in 0.5% DMSO”, the solubility entry is given as “partial solubility”. The T cell proliferation entry in the data set with T cell is reported as “T cell proliferation”. In addition, the “inhibition of remodeling PAF-acetyltransferase” value in data set [1] (0.1 μg/well) is on record as “about 12%”; in data set [1] (8.3 μg/well), “about 71%”; in data set [1] (25 μg/well), “about 65%”. The “selectivity for the remodeling pathway of PAF synthesis” value in data set [1] (versus de novo PAF-acetyltransferase) is listed as “selective modulator of the remodeling pathway of PAF synthesis”. Besides, in [2] (0.1 to 8.3 μg/well), the “inhibition of de novo PAF-acetyltransferase” value is “no significant inhibition”. The B cell proliferation result in the data set on B cell was “stimulated B cell proliferation”.
